Measured values as given in US20060093597A1, “Methods of treating involuntary facial spasms and facial wrinkles” (priority 2002, published 2006).
Like-named read-outs stand apart in the source and are kept apart here.

Assays:
[1] = system: Botox-induced symptoms; type: in vivo, mouse; conditions: for reading of Botox-induced muscle weakness after topical DAP: n=7
[2] = system: neuromuscular blockade; conditions: effective-dose comparison with PMB; cited from earlier work
[3] = system: various bacteria; conditions: cited from earlier work
[4] = system: mice; conditions: effective-dose comparison with PMB; cited from earlier work
[5] = system: rat mast cells; conditions: cited from earlier work
[6] = system: eukaryotic cytotoxicity; conditions: cited from earlier work
[7] = in vivo; cited from earlier work

Compound | reading of Botox-induced muscle weakness after topical DAP ([1]; at 1 hour) | reading of Botox-induced muscle weakness after topical DAP ([1]; at 4 hour) | reading later in the experiment ([1]; mouse, in vivo) | response to topical administration ([1]; mouse, in vivo) | fold less active than PMB in causing neuromuscular blockade [2] [times] | MIC compared to parent molecule PMB [3] | fold less toxic than PMB, acute toxicity [4] [times] | fold less active than PMB in releasing histamine [5] [time] | fold less toxic than PMB, cytotoxicity [6] [times] | half-life [7]
Nc1ccncc1N [DAP, 3,4-diaminopyridine] | 1.5 | 0.75 | the reading went up | rapid response | – | – | – | – | – | –
Polymyxin B nonapeptide [PMBN] | – | – | – | – | 150 | increased up to thousand folds | 15 | 25 | 100 | approximately 25 minutes
